The target in experiment [1] is SENP7 (Homo sapiens (Human), UniProt Q9BQF6). Nature of the experiment: DUB-Glo bioluminescent assay, SENP7. As to conditions: DUB-Glo substrate. The format is biochemical.
Protocol: (§1) In 96-well plates, SENPs (50-200 nM) were pre-treated with increasing concentrations of each compound, after which DUB-Glo (40 μM final concentration; Promega, Madison, Wis.) was added as substrate. Experiments were performed in triplicate. The amount of cleaved product is proportional to the relative light unit (RLU), which is bioluminescence produced by luciferase catalyzed reaction of luciferin that was produced by SENP cleavage of DUB-Glo.
(§2) To determine whether other SENPs can be inhibited by this family of inhibitors, a distant SENP member, SENP7, was tested in parallel with SENP1 and SENP2 using a pentapeptide substrate that contained the Gly-Gly motif and luciferin, known as DUB-Glo (Promega, Madison, Wis.). Cleavage of luciferin by a SENP can be detected by a coupled bioluminescent assay using luciferase. The bioluminescent reporter was chosen instead of a fluorescent reporter to avoid interference by the compounds during detection.
DUB-Glo Assay. The luciferase substrate assay (DUB-Glo, Promega, Madison, Wis.) was performed according to the manufacturer's instructions. Briefly, SENPs (final concentration 50-100 nM) in Tris buffer (50 mM Tris, pH 8.0, 100 mM NaCl, 10 mM DTT) were pre-incubated (10 min, room temperature) with increasing concentrations of inhibitor (0-60 μM final concentration) followed by addition of the luciferase substrate. Luciferase output was recorded 30 min after addition of the luciferase substrate. Values are the averages of experiments performed in triplicate.
In experiment [2] the target is T1, SENP1 (Homo sapiens (Human), UniProt Q9P0U3). Nature of the experiment: SUMO cleavage assay (gel-based), SENP1, SUMO-1 precursor YSE substrate. The format is biochemical. Particulars: cleavage of SUMO-1 precursor (YSE), read-out: IC50 (μM)-SUMO1 SENP1.
Experiment [3] concerns the target T2, SENP2 (Homo sapiens (Human), UniProt Q9HC62). Description: SUMO cleavage assay (gel-based), SENP2, SUMO-1 precursor YSE substrate. The format is biochemical. As to conditions: cleavage of SUMO-1 precursor (YSE), read-out: IC50 (μM)-SUMO1 SENP2.
The target in experiment [4] is T1, SENP1. Description: SUMO cleavage assay (gel-based), SENP1, SUMO-2 precursor YSE substrate. Format: biochemical.
Experiment [5] concerns the target T2, SENP2. Description: SUMO cleavage assay (gel-based), SENP2, SUMO-2 precursor YSE substrate. The format is biochemical. Particulars: cleavage of SUMO-2 precursor (YSE), read-out: IC50 (μM)-SUMO2 SENP2.
Experiment [6] has as its target T1, SENP1. Nature of the experiment: DUB-Glo bioluminescent assay, SENP1. Format: biochemical. As to conditions: DUB-Glo substrate.
Protocol: as §1, §2
(§3) DUB-Glo Assay. The luciferase substrate assay (DUB-Glo, Promega, Madison, Wis.) was performed according to the manufacturer's instructions. […] Luciferase output was recorded 30 min after addition of the luciferase substrate. […]
The target in experiment [7] is T2, SENP2. Description: DUB-Glo bioluminescent assay, SENP2. The format is biochemical. Particulars: DUB-Glo substrate.
Protocol: as §1, §2, §3
In experiment [8] the test system is HeLa cells. Nature of the experiment: Cellular SENP inhibition: SUMOylated proteins in HeLa cells by Western blot. Particulars: increasing concentrations, 48 hours. For orientation: Immunoblotting shows a protein as a band on a membrane.

Where only a bound is given, the exact number is not on record here.

The text below walks through data of patent US9791447B2, “Methods of identifying SENP1 inhibitors” (City of Hope, priority 2013, dated 2017).

Sequence of SENP7 (Q9BQF6 760-1050): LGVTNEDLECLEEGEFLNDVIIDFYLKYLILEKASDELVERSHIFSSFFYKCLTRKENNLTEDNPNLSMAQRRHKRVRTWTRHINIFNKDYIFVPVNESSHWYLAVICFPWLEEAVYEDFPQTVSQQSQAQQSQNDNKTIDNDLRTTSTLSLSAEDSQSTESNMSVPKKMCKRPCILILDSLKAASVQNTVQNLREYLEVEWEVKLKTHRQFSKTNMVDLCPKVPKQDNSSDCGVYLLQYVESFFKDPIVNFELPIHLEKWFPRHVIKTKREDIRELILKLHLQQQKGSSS
T2 sequence (Q9HC62 364-589): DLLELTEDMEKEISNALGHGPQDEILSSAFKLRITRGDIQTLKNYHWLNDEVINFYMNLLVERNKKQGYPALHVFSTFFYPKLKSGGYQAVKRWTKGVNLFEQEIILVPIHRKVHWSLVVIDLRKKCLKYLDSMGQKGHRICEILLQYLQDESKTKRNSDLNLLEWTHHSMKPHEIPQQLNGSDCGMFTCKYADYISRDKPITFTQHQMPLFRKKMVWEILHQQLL
T1 sequence (Q9P0U3 419-644): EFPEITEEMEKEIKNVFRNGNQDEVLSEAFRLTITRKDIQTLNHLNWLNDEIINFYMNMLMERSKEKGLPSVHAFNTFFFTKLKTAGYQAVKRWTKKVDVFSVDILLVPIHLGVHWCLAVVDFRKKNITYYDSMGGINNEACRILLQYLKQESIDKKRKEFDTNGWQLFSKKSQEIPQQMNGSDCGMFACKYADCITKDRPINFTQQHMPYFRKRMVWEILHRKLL

`Nc1ccc2cc(S(=O)(=O)O)cc(S(=O)(=O)O)c2c1/N=N/c1ccc(S(=O)(=O)O)cc1` [SPI-09] registered an IC50 in experiment [1] of 1.9 ± 2.1 µM.
Still for that read-out and setting: the figure for `Nc1c(/N=N/c2ccccc2)cc(S(=O)(=O)O)c2ccccc12` [SPI-08] is 2.8 ± 1.6 µM.
With `Cc1cc(N)ccc1/N=N/c1cc(S(=O)(=O)O)c2cccc(S(=O)(=O)O)c2c1.[Na+].[Na+]` [SPI-07], the IC50 in experiment [2] is more than 60 µM; in experiment [3], more than 60 µM; in experiment [4] (cleavage of SUMO-2 precursor (YSE), gel-based, read-out: IC50 (μM)-SUMO2 SENP1) it was 17.5 ± 4.9 µM; in experiment [5], 28.1 ± 9.2 µM; in experiment [6] it was more than 60 µM; in experiment [7], more than 60 µM. The same molecule gave an IC50 in experiment [1] of 1.9 ± 2.2 µM. The “potency for inhibiting SENP1 compared with SENP2” value in experiment [4] (cleavage of the SUMO-2 precursor) is recorded as “more potent for inhibiting SENP1 than SENP2”.
`Nc1ccc2ccccc2c1/N=N/c1ccc(/C=C/c2ccc(/N=N/c3c(N)ccc4ccccc34)cc2S(=O)(=O)O)c(S(=O)(=O)O)c1` [SPI-01]: in experiment [8], the “accumulation of SUMO-1 conjugates” value is on record as “less significant effects on the accumulation of SUMO-1 conjugates” and the “accumulation of SUMO-2/3 conjugates” value is recorded as “SUMO-2/3 conjugates accumulated in cells”.

What is called IC50 is the concentration that gives 50% inhibition.
